Experimental data taken from publication PMC6684654 (Nature Communications, 2019).
Like-named read-outs stand apart in the source and are kept apart here.

Key:
Assay type in all cases: cell-based
[1] = tested on: E. coli ATCC25922; assay: MIC, broth microdilution; settings: Escherichia coli
Excerpt: (§1) MIC values were identified through microdilution in sterilized 96-well polypropylene microtiter plates according to the broth microdilution guideline of the Clinical and Laboratory Standards Institute[30]. The test medium was Mueller–Hinton broth (MHB), and the strain concentrations were adjusted to 5 × 10^5 CFU/mL.

[2] = tested on: E. coli ATCC35218; assay: MIC, broth microdilution; settings: Escherichia coli
Excerpt: as §1

[3] = tested on: K. pneumoniae ATCC13883; assay: MIC, broth microdilution; settings: Klebsiella pneumoniae
Excerpt: as §1

[4] = tested on: NDM-1 E. coli XJ141015; assay: MIC, broth microdilution; settings: Escherichia coli, 16 h
Excerpt: as §1

[5] = tested on: NDM-1 E. coli XJ141026; assay: MIC, broth microdilution; settings: Escherichia coli, 16 h
Excerpt: as §1

[6] = tested on: NDM-1 E. coli XJ141047; assay: MIC, broth microdilution; settings: Escherichia coli, 16 h
Excerpt: as §1

[7] = tested on: NDM-1 K. pneumoniae XJ155017; assay: MIC, broth microdilution; settings: Klebsiella pneumoniae, 16 h
Excerpt: as §1

[8] = tested on: NDM-1 K. pneumoniae XJ155018; assay: MIC, broth microdilution; settings: Klebsiella pneumoniae, 16 h
Excerpt: as §1

[9] = tested on: NDM-1 K. pneumoniae XJ155019; assay: MIC, broth microdilution; settings: Klebsiella pneumoniae, 16 h
Excerpt: as §1

[10] = tested on: NDM-1 K. pneumoniae XJ155020; assay: MIC, broth microdilution; settings: Klebsiella pneumoniae, 16 h
Excerpt: as §1

[11] = tested on: E. coli ATCC25922; assay: Antibiotic susceptibility (MIC), automated identification system; settings: Supplementary Table 1; for MIC: Escherichia coli, ATCC25922
Excerpt: (§2) Clinical isolate strains were identified and screened by the Phoenix 100 automated bacterial identification system to rapidly detect antimicrobial resistance. Total DNA was extracted by the TIANamp Bacteria DNA Kit according to the manufacturer’s protocol. The presence of blaNDM-1 was confirmed using a diagnostic kit for NDM-1 (Puruikang Bio Inc., Shenzhen, China) based on fluorescent quantitative polymerase chain reaction assay. According to the instruction, Ct values of less than 37 were considered positive.

[12] = tested on: K. pneumoniae ATCC13883; assay: as above; settings: Supplementary Table 2; for MIC: Klebsiella pneumoniae, ATCC13883
Excerpt: as §2

[13] = tested on: NDM-1 E. coli XJ141015; assay: as above; settings: Supplementary Table 1; for MIC: Escherichia coli
Excerpt: as §2

[14] = tested on: NDM-1 E. coli XJ141026; assay: as above; settings: Supplementary Table 1; for MIC: Escherichia coli
Excerpt: as §2

[15] = tested on: NDM-1 E. coli XJ141047; assay: as above; settings: Supplementary Table 1; for MIC: Escherichia coli
Excerpt: as §2

[16] = tested on: NDM-1 K. pneumoniae XJ155017; assay: as above; settings: Supplementary Table 2; for MIC: Klebsiella pneumoniae
Excerpt: as §2

[17] = tested on: NDM-1 K. pneumoniae XJ155018; assay: as above; settings: Supplementary Table 2; for MIC: Klebsiella pneumoniae
Excerpt: as §2

[18] = tested on: NDM-1 K. pneumoniae XJ155019; assay: as above; settings: Supplementary Table 2; for MIC: Klebsiella pneumoniae
Excerpt: as §2

[19] = tested on: NDM-1 K. pneumoniae XJ155020; assay: as above; settings: Supplementary Table 2; for MIC: Klebsiella pneumoniae
Excerpt: as §2

[20] = tested on: NDM-1 E. coli XJ141015; assay: Kirby Bauer disc diffusion
Excerpt: (§3) Supplementary Table 1. Identification and antibiotic susceptibility of NDM-1-producing E. coli strains. […]
(§4) Cefoperazone/ sul bact am KB — — 7 (R) 7 (R) 7 (R)
(§5) Nitrofurantoi n KB — — 14 (R) 17 (R) 19 (S) […]
(§6) R, resistant; S, sensitive; M IC , minimum inhibitory concentration; KB, Kirb y Bauer disc diffusion method.
(§7) The unit of M IC is “ μ g/ mL”. The unit of KB is “ mm” .

[21] = tested on: NDM-1 E. coli XJ141026; assay: Kirby Bauer disc diffusion
Excerpt: as §3, §4, §5, §6, §7

[22] = tested on: NDM-1 E. coli XJ141047; assay: Kirby Bauer disc diffusion
Excerpt: as §3, §4, §5, §6, §7

[23] = tested on: K. pneumoniae ATCC13883; assay: Kirby Bauer disc diffusion
Excerpt: (§8) Supplementary Ta b l e 2. Identification and anti biotic susceptibility of NDM-1-producing K. pneumonia strains.
(§9) Antibiotics NDM-1 NDM-1 NDM-1 NDM-1 […]
(§10) Cefoperazone/ sul bact am KB 32 (S) 7 (R) 7 (R) 7 (R) 7 (R)
(§11) Nitrofurantoi n KB 21 (S) 7 (R) 9 (R) 10 (R) 9 (R) […]
(§12) R, resistant; S, sensitive; M IC , minimum inhibitory concentration; KB, Kirb y Baue r disc diffusion method .
(§13) The unit of M IC is “μg/mL”. The unit of KB is “mm”.

[24] = tested on: NDM-1 K. pneumoniae XJ155017; assay: Kirby Bauer disc diffusion
Excerpt: as §8, §9, §10, §11, §12, §13

[25] = tested on: NDM-1 K. pneumoniae XJ155018; assay: Kirby Bauer disc diffusion
Excerpt: as §8, §9, §10, §11, §12, §13

[26] = tested on: NDM-1 K. pneumoniae XJ155019; assay: Kirby Bauer disc diffusion
Excerpt: as §8, §9, §10, §11, §12, §13

[27] = tested on: NDM-1 K. pneumoniae XJ155020; assay: Kirby Bauer disc diffusion
Excerpt: as §8, §9, §10, §11, §12, §13

[28] = Klebsiella pneumoniae, read-out: KB disc diffusion

Row | Compound | MIC [4] [µg/mL] | MIC [5] [µg/mL] | MIC [6] [µg/mL] | MIC [7] [µg/mL] | MIC [8] [µg/mL] | MIC [9] [µg/mL] | MIC [10] [µg/mL] | MIC [11] [µg/mL] | susceptibility class (MIC) [11] | MIC [12] [µg/mL] | susceptibility class (MIC) [12] | MIC [13] [µg/mL] | susceptibility class (MIC) [13] | MIC [14] [µg/mL] | susceptibility class (MIC) [14] | MIC [15] [µg/mL] | susceptibility class (MIC) [15] | MIC [16] [µg/mL] | susceptibility class (MIC) [16] | MIC [17] [µg/mL] | further results
1 | CC(C)(O/N=C(\C(=O)N[C@@H]1C(=O)N2C(C(=O)[O-])=C(C[n+]3ccccc3)CS[C@H]12)c1csc(N)n1)C(=O)O [Ceftazidime] | > 256 | > 256 | > 256 | > 256 | > 256 | > 256 | > 256 | ≤ 1 | S | ≤ 1 | S | > 16 | R | > 16 | R | > 16 | R | > 16 | R | > 16 | MIC ([1]; ATCC25922, MHB, 5 × 10^5 CFU/mL, 16 h, 37 °C, read-out: MIC): < 0.125 µg/mL; MIC ([2]; ATCC35218, MHB, 5 × 10^5 CFU/mL, 16 h, 37 °C, read-out: MIC): < 0.125 µg/mL; MIC ([3]; ATCC13883, MHB, 5 × 10^5 CFU/mL, 16 h, 37 °C, read-out: MIC): < 0.125 µg/mL; susceptibility class (MIC) [17]: R; MIC [18]: > 16 µg/mL; susceptibility class (MIC) [18]: R; MIC [19]: > 16 µg/mL; susceptibility class (MIC) [19]: R
2 | CO/N=C(\C(=O)N[C@@H]1C(=O)N2C(C(=O)O)=C(COC(C)=O)CS[C@H]12)c1csc(N)n1 [Cefotaxime] | > 256 | > 256 | > 256 | > 256 | > 256 | > 256 | > 256 | ≤ 1 | S | ≤ 1 | S | > 32 | R | > 32 | R | > 32 | R | > 32 | R | > 32 | MIC ([1]; ATCC25922, 16 h): < 0.125 µg/mL; MIC ([2]; ATCC35218, 16 h): < 0.125 µg/mL; MIC ([3]; ATCC13883, 16 h): < 0.125 µg/mL; susceptibility class (MIC) [17]: R; MIC [18]: > 32 µg/mL; susceptibility class (MIC) [18]: R; MIC [19]: > 32 µg/mL; susceptibility class (MIC) [19]: R
3 | CO/N=C(\C(=O)N[C@@H]1C(=O)N2C(C(=O)O)=C(COC(N)=O)CS[C@H]12)c1ccco1 [Cefuroxime] | – | – | – | – | – | – | – | – | – | – | – | – | – | – | – | – | – | – | – | – | susceptibility class (KB) [20]: R; susceptibility class (KB) [21]: R; susceptibility class (KB) [22]: R; inhibition zone diameter ([22]; Escherichia coli, read-out: KB disc diffusion): 7 mM; susceptibility class (KB) [23]: S; inhibition zone diameter ([23]; Klebsiella pneumoniae, ATCC13883, read-out: KB disc diffusion): 23 mM; susceptibility class (KB) [24]: R; inhibition zone diameter (Kirby-Bauer disc diffusion) [24, 28]: 7 mM; susceptibility class (KB) [25]: R; inhibition zone diameter [25, 28]: 7 mM; susceptibility class (KB) [26]: R; susceptibility class (KB) [27]: R; disc diffusion inhibition zone diameter [27, 28]: 7 mM
